Measurements: BindingDB's records for doi:10.1016/s0960-894x(01)00095-6 (Seoul National University, 2001)

Tests used:
[1] = biological target: Isoleucine--tRNA ligase (Escherichia coli) (UniProt P00956); assay: Inhibition of [3H]isoleucyl incorporation by Escherichia coli isoleucyl-tRNA synthetase (IleRS)
[2] = biological target: Methionine--tRNA ligase (Escherichia coli) (UniProt P00959); assay: Inhibition of [35S]methionyl incorporation by Escherichia coli methionyl-tRNA synthetase (MetRS)
Methionine--tRNA ligase (Escherichia coli), sequence (P00959 whole entry, looked up): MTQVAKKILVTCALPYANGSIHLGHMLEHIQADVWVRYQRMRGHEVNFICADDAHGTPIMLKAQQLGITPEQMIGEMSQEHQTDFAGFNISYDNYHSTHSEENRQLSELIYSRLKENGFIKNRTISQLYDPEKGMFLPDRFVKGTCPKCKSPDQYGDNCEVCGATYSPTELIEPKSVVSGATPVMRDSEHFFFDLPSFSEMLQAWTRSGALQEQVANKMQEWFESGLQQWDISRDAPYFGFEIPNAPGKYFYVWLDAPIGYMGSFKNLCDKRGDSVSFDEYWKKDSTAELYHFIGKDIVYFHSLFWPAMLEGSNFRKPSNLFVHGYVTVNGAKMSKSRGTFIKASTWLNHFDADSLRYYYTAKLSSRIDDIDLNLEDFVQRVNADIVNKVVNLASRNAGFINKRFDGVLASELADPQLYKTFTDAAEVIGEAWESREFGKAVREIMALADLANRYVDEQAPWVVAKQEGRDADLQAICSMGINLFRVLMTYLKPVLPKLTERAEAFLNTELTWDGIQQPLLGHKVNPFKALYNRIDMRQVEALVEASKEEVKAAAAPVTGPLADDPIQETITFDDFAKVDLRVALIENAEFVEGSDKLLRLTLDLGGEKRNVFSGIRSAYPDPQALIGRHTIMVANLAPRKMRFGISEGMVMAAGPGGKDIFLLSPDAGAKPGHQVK

Isoleucine--tRNA ligase (Escherichia coli), sequence (P00956 whole entry, looked up): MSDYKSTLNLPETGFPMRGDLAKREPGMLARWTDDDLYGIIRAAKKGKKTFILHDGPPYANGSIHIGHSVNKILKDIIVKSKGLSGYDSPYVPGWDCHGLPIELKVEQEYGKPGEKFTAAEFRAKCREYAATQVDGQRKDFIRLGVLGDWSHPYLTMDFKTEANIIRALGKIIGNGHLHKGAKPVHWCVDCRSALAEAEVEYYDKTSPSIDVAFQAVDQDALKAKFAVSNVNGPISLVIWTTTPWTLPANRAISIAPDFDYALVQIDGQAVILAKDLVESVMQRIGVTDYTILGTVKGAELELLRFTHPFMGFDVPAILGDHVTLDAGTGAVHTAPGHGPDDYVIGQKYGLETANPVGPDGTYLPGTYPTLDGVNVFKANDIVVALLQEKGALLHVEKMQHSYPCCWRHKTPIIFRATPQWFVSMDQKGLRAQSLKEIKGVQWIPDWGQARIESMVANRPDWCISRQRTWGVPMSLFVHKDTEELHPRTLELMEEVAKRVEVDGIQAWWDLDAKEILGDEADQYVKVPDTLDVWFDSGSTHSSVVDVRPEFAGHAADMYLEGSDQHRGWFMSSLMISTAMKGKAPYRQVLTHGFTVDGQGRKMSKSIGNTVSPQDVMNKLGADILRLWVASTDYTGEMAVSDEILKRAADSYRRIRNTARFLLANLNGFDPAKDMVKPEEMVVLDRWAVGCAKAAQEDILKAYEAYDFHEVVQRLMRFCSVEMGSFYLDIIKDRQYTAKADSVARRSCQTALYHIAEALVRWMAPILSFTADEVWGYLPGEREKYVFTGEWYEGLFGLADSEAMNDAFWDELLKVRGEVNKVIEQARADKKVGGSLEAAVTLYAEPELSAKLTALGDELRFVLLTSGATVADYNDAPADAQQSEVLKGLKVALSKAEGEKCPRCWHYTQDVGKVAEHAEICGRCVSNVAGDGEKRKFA

Row | Structure (SMILES) | IC50 [1] | IC50 [2]
1 | CC[C@H](C)[C@H](N)C(=O)N(O)C[C@H]1O[C@@H](CCn2nnc(-c3ccccc3)n2)[C@H](O)[C@@H]1O [(1S,2S)-1-({(2R,3S,4R,5S)-3,4-Dihydroxy-5-[2-(5-phenyl-tetrazol-2-yl)-ethyl]-tetrahydro-furan-2-ylmethyl}-hydroxy-carbamoyl)-2-methyl-butyl-ammonium] | > 128 µM | –
2 | CC[C@H](C)[C@H](N)C(=O)N(O)C[C@H]1O[C@@H](CCn2cnc3c(N)ncnc32)[C@H](O)[C@@H]1O [(1S,2S)-1-({(2R,3S,4R,5S)-5-[2-(6-Amino-purin-9-yl)-ethyl]-3,4-dihydroxy-tetrahydro-furan-2-ylmethyl}-hydroxy-carbamoyl)-2-methyl-butyl-ammonium] | > 128 µM | –
3 | CC[C@H](C)[C@H](N)C(=O)N(O)C[C@H]1O[C@@H](CCn2cnc3c(NCc4ccccc4)ncnc32)[C@H](O)[C@@H]1O [(1S,2S)-1-({(2R,3S,4R,5S)-5-[2-(6-Benzylamino-purin-9-yl)-ethyl]-3,4-dihydroxy-tetrahydro-furan-2-ylmethyl}-hydroxy-carbamoyl)-2-methyl-butyl-ammonium] | > 128 µM | –
4 | CC[C@H](C)[C@H](N)C(=O)OC[C@H]1O[C@@H](n2cnc3c(N)ncnc32)[C@H](O)[C@@H]1O [(1S,2S)-1-[(2R,3S,4R,5R)-5-(6-Amino-purin-9-yl)-3,4-dihydroxy-tetrahydro-furan-2-ylmethoxycarbonyl]-2-methyl-butyl-ammonium] | 183 µM | –
5 | CC[C@H](C)[C@H](N)C(=O)OC[C@H]1O[C@@H](Cn2cnc3c(N)ncnc32)[C@H](O)[C@@H]1O [(1S,2S)-1-[(2R,3S,4R,5S)-5-(6-Amino-purin-9-ylmethyl)-3,4-dihydroxy-tetrahydro-furan-2-ylmethoxycarbonyl]-2-methyl-butyl-ammonium] | > 128 µM | –
6 | CC[C@H](C)[C@H](N)C(=O)OC[C@H]1O[C@@H](CCn2nnc(-c3ccccc3)n2)[C@H](O)[C@@H]1O [(1S,2S)-1-{(2R,3S,4R,5S)-3,4-Dihydroxy-5-[2-(5-phenyl-tetrazol-2-yl)-ethyl]-tetrahydro-furan-2-ylmethoxycarbonyl}-2-methyl-butyl-ammonium] | 63.6 µM | –
7 | CC[C@H](C)[C@H](N)C(=O)OC[C@H]1O[C@@H](CCn2cnc3c(N)ncnc32)[C@H](O)[C@@H]1O [(1S,2S)-1-{(2R,3S,4R,5S)-5-[2-(6-Amino-purin-9-yl)-ethyl]-3,4-dihydroxy-tetrahydro-furan-2-ylmethoxycarbonyl}-2-methyl-butyl-ammonium] | > 128 µM | –
8 | CC[C@H](C)[C@H](N)C(=O)OC[C@H]1O[C@@H](CCn2cnc3c(NCc4ccccc4)ncnc32)[C@H](O)[C@@H]1O [(1S,2S)-1-{(2R,3S,4R,5S)-5-[2-(6-Benzylamino-purin-9-yl)-ethyl]-3,4-dihydroxy-tetrahydro-furan-2-ylmethoxycarbonyl}-2-methyl-butyl-ammonium] | 84 µM | –
9 | CC[C@H](C)[C@H](N)C(=O)N(O)C[C@H]1O[C@@H](n2cnc3c(N)ncnc32)[C@H](O)[C@@H]1O [(1S,2S)-1-{[(2R,3S,4R,5R)-5-(6-Amino-purin-9-yl)-3,4-dihydroxy-tetrahydro-furan-2-ylmethyl]-hydroxy-carbamoyl}-2-methyl-butyl-ammonium] | 181 µM | –
10 | CC[C@H](C)[C@H](N)C(=O)N(O)C[C@H]1O[C@@H](Cn2cnc3c(N)ncnc32)[C@H](O)[C@@H]1O [(1S,2S)-1-{[(2R,3S,4R,5S)-5-(6-Amino-purin-9-ylmethyl)-3,4-dihydroxy-tetrahydro-furan-2-ylmethyl]-hydroxy-carbamoyl}-2-methyl-butyl-ammonium] | > 128 µM | –
11 | CSCC[C@H](N)C(=O)N(O)C[C@H]1O[C@@H](CCn2nnc(-c3ccccc3)n2)[C@H](O)[C@@H]1O [(S)-1-({(2R,3S,4R,5S)-3,4-Dihydroxy-5-[2-(5-phenyl-tetrazol-2-yl)-ethyl]-tetrahydro-furan-2-ylmethyl}-hydroxy-carbamoyl)-3-methylsulfanyl-propyl-ammonium] | – | 34 µM
12 | CSCC[C@H](N)C(=O)N(O)C[C@H]1O[C@@H](CCn2cnc3c(N)ncnc32)[C@H](O)[C@@H]1O [(S)-1-({(2R,3S,4R,5S)-5-[2-(6-Amino-purin-9-yl)-ethyl]-3,4-dihydroxy-tetrahydro-furan-2-ylmethyl}-hydroxy-carbamoyl)-3-methylsulfanyl-propyl-ammonium] | – | 56 µM
13 | CSCC[C@H](N)C(=O)N(O)C[C@H]1O[C@@H](CCn2cnc3c(NCc4ccccc4)ncnc32)[C@H](O)[C@@H]1O [(S)-1-({(2R,3S,4R,5S)-5-[2-(6-Benzylamino-purin-9-yl)-ethyl]-3,4-dihydroxy-tetrahydro-furan-2-ylmethyl}-hydroxy-carbamoyl)-3-methylsulfanyl-propyl-ammonium] | – | 23 µM
14 | CSCC[C@H](N)C(=O)OC[C@H]1O[C@@H](n2cnc3c(N)ncnc32)[C@H](O)[C@@H]1O [(S)-1-[(2R,3S,4R,5R)-5-(6-Amino-purin-9-yl)-3,4-dihydroxy-tetrahydro-furan-2-ylmethoxycarbonyl]-3-methylsulfanyl-propyl-ammonium] | – | 5 µM
15 | CSCC[C@H](N)C(=O)OC[C@H]1O[C@@H](Cn2nnc(-c3ccccc3)n2)[C@H](O)[C@@H]1O [(S)-1-[(2R,3S,4R,5S)-3,4-Dihydroxy-5-(5-phenyl-tetrazol-2-ylmethyl)-tetrahydro-furan-2-ylmethoxycarbonyl]-3-methylsulfanyl-propyl-ammonium] | – | 12.2 µM
16 | CSCC[C@H](N)C(=O)OC[C@H]1O[C@@H](Cn2cnc3c(N)ncnc32)[C@H](O)[C@@H]1O [(S)-1-[(2R,3S,4R,5S)-5-(6-Amino-purin-9-ylmethyl)-3,4-dihydroxy-tetrahydro-furan-2-ylmethoxycarbonyl]-3-methylsulfanyl-propyl-ammonium] | – | 3.6 µM
17 | CSCC[C@H](N)C(=O)OC[C@H]1O[C@@H](Cn2cnc3c(NCc4ccccc4)ncnc32)[C@H](O)[C@@H]1O [(S)-1-[(2R,3S,4R,5S)-5-(6-Benzylamino-purin-9-ylmethyl)-3,4-dihydroxy-tetrahydro-furan-2-ylmethoxycarbonyl]-3-methylsulfanyl-propyl-ammonium] | – | 16.5 µM
18 | CSCC[C@H](N)C(=O)OC[C@H]1O[C@@H](CCn2nnc(-c3ccccc3)n2)[C@H](O)[C@@H]1O [(S)-1-{(2R,3S,4R,5S)-3,4-Dihydroxy-5-[2-(5-phenyl-tetrazol-2-yl)-ethyl]-tetrahydro-furan-2-ylmethoxycarbonyl}-3-methylsulfanyl-propyl-ammonium] | – | > 256 µM
19 | CSCC[C@H](N)C(=O)OC[C@H]1O[C@@H](CCn2cnc3c(N)ncnc32)[C@H](O)[C@@H]1O [(S)-1-{(2R,3S,4R,5S)-5-[2-(6-Amino-purin-9-yl)-ethyl]-3,4-dihydroxy-tetrahydro-furan-2-ylmethoxycarbonyl}-3-methylsulfanyl-propyl-ammonium] | – | 8.3 µM
20 | CSCC[C@H](N)C(=O)OC[C@H]1O[C@@H](CCn2cnc3c(NCc4ccccc4)ncnc32)[C@H](O)[C@@H]1O [(S)-1-{(2R,3S,4R,5S)-5-[2-(6-Benzylamino-purin-9-yl)-ethyl]-3,4-dihydroxy-tetrahydro-furan-2-ylmethoxycarbonyl}-3-methylsulfanyl-propyl-ammonium] | – | 33.2 µM
21 | CSCC[C@H](N)C(=O)N(O)C[C@H]1O[C@@H](n2cnc3c(N)ncnc32)[C@H](O)[C@@H]1O [(S)-1-{[(2R,3S,4R,5R)-5-(6-Amino-purin-9-yl)-3,4-dihydroxy-tetrahydro-furan-2-ylmethyl]-hydroxy-carbamoyl}-3-methylsulfanyl-propyl-ammonium] | – | 27 µM
22 | CSCC[C@H](N)C(=O)N(O)C[C@H]1O[C@@H](Cn2nnc(-c3ccccc3)n2)[C@H](O)[C@@H]1O [(S)-1-{[(2R,3S,4R,5S)-3,4-Dihydroxy-5-(5-phenyl-tetrazol-2-ylmethyl)-tetrahydro-furan-2-ylmethyl]-hydroxy-carbamoyl}-3-methylsulfanyl-propyl-ammonium] | – | 17 µM
23 | CSCC[C@H](N)C(=O)N(O)C[C@H]1O[C@@H](Cn2cnc3c(N)ncnc32)[C@H](O)[C@@H]1O [(S)-1-{[(2R,3S,4R,5S)-5-(6-Amino-purin-9-ylmethyl)-3,4-dihydroxy-tetrahydro-furan-2-ylmethyl]-hydroxy-carbamoyl}-3-methylsulfanyl-propyl-ammonium] | – | 26 µM
24 | CSCC[C@H](N)C(=O)N(O)C[C@H]1O[C@@H](Cn2cnc3c(NCc4ccccc4)ncnc32)[C@H](O)[C@@H]1O [(S)-1-{[(2R,3S,4R,5S)-5-(6-Benzylamino-purin-9-ylmethyl)-3,4-dihydroxy-tetrahydro-furan-2-ylmethyl]-hydroxy-carbamoyl}-3-methylsulfanyl-propyl-ammonium] | – | 63 µM
